Measured values published in ChEMBL document CHEMBL3763012, “From Sphingosine Kinase to Dihydroceramide Desaturase: A Structure-Activity Relationship (SAR) Study of the Enzyme Inhibitory and Anticancer Activity of 4-((4-(4-Chlorophenyl)thiazol-2-yl)amino)phenol (SKI-II)” (J Med Chem, 2016).
Blank lines part the entries; values can stand above or below the compound they belong to. Calls of active or inactive are those of the source. The calls are words filed in the database; no cut-off is given here.

How the values were obtained:
[1] = target: T1, Sphingolipid delta(4)-desaturase DES1 (Homo sapiens) (UniProt O15121); assay: Inhibition of Des1 activity in human Jurkat cells using fluorescence labeled DhCer-C6-NBD as substrate at 10 uM after 3 hrs by HPLC method; format: cell-based
T1 sequence (whole entry): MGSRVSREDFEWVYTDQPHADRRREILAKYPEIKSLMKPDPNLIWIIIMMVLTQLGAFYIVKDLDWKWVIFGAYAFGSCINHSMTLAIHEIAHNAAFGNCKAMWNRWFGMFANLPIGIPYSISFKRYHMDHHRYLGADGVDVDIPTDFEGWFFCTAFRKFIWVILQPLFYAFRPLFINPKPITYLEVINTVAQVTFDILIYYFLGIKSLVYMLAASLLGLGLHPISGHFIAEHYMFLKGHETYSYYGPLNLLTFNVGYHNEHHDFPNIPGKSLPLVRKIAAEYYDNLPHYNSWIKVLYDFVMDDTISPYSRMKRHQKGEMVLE

[2] = target: T1, Sphingolipid delta(4)-desaturase DES1 (Homo sapiens); assay: Inhibition of Des1 activity in human Jurkat cells using fluorescence labeled DhCer-C6-NBD as substrate at 1 and 10 uM after 3 hrs by HPLC method; format: cell-based
Sphingosine kinase 2 [3] = target: T2, Sphingosine kinase 2 (Homo sapiens, UniProt Q9NRA0); assay: Inhibition of recombinant SK2 (unknown origin) expressed in Sf9 cells assessed as [33P]S1P formation using D-erythro sphingosine as substrate and gamma[33P]ATP by liquid scintillation counting
T2 sequence (Q9NRA0 whole entry): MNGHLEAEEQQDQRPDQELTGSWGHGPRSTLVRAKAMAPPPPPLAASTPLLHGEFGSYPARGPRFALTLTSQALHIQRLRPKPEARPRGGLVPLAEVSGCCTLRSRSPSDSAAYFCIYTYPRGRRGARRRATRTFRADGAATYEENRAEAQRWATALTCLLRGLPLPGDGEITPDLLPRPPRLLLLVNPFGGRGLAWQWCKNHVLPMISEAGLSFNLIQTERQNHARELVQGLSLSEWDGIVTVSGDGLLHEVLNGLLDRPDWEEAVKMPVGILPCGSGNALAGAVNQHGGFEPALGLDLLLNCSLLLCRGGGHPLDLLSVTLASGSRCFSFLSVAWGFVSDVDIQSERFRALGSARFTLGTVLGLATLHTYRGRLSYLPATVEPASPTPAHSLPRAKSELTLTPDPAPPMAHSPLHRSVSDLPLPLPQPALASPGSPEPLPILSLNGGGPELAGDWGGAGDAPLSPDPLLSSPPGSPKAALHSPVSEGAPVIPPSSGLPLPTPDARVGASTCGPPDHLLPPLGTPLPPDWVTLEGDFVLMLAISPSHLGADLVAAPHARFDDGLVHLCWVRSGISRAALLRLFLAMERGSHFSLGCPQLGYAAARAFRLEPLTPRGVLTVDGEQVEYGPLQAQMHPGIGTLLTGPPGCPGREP

[4] = Antiproliferative activity against human PC3 cells after 72 hrs by MTS assay; format: functional; settings: PC-3, 72 h
HEK293 = assay: Induction of SK1 degradation in HEK293 cells at 10 uM after 16 hrs by western blotting analysis in presence of proteasome inhibitor MG132; format: functional, cell-based; settings: Homo sapiens
[5] = target: T3, Sphingosine kinase 2 (Homo sapiens) (UniProt Q9NRA0); assay: Inhibition of recombinant human SK2 assessed as production of [32P] S1P using sphingosine as substrate at 10 uM by TLC method in presence of 100 uM [gamma32P]-ATP relative to control; values are per cent of control
T3 sequence (whole entry): T2 sequence (Q9NRA0 whole entry)

[6] = target: T1, Sphingolipid delta(4)-desaturase DES1 (Homo sapiens); assay: Inhibition of Des1 (unknown origin) at 30 uM
Sphingosine kinase 1 [7] = target: T4, Sphingosine kinase 1 (Homo sapiens, UniProt Q9NYA1); assay: Inhibition of recombinant His-tagged human SK1 assessed as production of [32P]-S1P using 10 uM sphingosine as substrate by TLC method in presence of 1 mM [gamma32P]-ATP
T4 sequence (Q9NYA1 whole entry): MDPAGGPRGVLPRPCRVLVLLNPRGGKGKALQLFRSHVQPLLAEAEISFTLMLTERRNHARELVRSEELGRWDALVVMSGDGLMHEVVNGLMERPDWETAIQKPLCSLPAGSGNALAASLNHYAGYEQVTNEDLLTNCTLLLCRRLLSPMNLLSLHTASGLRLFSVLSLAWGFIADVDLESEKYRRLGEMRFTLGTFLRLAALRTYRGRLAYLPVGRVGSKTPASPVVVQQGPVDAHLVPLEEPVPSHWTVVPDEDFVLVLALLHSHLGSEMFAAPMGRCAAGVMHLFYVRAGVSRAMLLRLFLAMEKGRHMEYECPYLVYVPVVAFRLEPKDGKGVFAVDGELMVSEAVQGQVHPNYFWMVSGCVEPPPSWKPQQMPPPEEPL

Sphingosine kinase 2 [8] = target: T2, Sphingosine kinase 2; assay: Inhibition of recombinant human SK2 assessed as production of [32P] S1P using 10 uM sphingosine as substrate by TLC method in presence of 1 mM [gamma32P]-ATP relative to control
[9] = Cytotoxicity against human PC3 cells after 72 hrs by MTT assay; format: functional; settings: PC-3, 72 h
[10] = target: T5, Sphingolipid delta(4)-desaturase DES1 (Homo sapiens, UniProt O15121); assay: Drug metabolism in human Jurkat cells assessed as DES1-mediated (2E,4E,6E,8E)-3,7-dimethyl-N-(4-oxocyclohexa-2,5-dienylidene)-9-(2,6,6-trimethylcyclohex-1-enyl)nona-2,4,6,8-tetraenamide formation; format: ADME, cell-based
T5 sequence (O15121 whole entry): T1 sequence (whole entry)

[11] = target: T1, Sphingolipid delta(4)-desaturase DES1 (Homo sapiens); assay: Inhibition of Des1 activity in human Jurkat cells using fluorescence labeled DhCer-C6-NBD as substrate at 0.1 to 10 uM after 3 hrs by HPLC method; format: cell-based
PC-3 [12] = assay: Increase in total dhCer level in human PC3 cells at 10 uM after 5 hrs by LC-MS analysis; format: functional, cell-based
PC-3 [13] = assay: Anticlonogenic activity against human PC3 cells at 0.05 to 10 uM after 21 days by soft agar colony forming assay; format: functional, cell-based
Sphingosine kinase 1 [14] = target: T4, Sphingosine kinase 1; assay: Inhibition of human SK1 using D-erythro sphingosine as substrate and gamma[33P]ATP by Lineweaver-Burk plot analysis
Sphingosine kinase 2 [15] = target: T2, Sphingosine kinase 2; assay: Inhibition of human SK2 using D-erythro sphingosine as substrate and gamma[33P]ATP by Lineweaver-Burk plot analysis
[16] = target: T1, Sphingolipid delta(4)-desaturase DES1 (Homo sapiens); assay: Irreversible inhibition of Des1 activity in human Jurkat cells treated with parent compound treated with fenretinide using fluorescence labeled DhCer-C6-NBD as substrate by HPLC method; format: cell-based; settings: TDE = time-dependent effect
[17] = target: T5, Sphingolipid delta(4)-desaturase DES1; assay: Drug level in human Jurkat cells assessed as DES1-mediated compound oxidation treated with fenretinide; format: ADME, cell-based
Sphingosine kinase 1 [18] = target: T4, Sphingosine kinase 1; assay: Inhibition of SK1 (unknown origin)
Sphingosine kinase 2 [19] = target: T2, Sphingosine kinase 2; assay: Inhibition of SK2 (unknown origin)

Structure (SMILES): CCCCCCCCc1ccc(-c2noc([C@H]3CCCN3C(=N)N)n2)cc1
Ki (Sphingosine kinase 2 [3]): 1.3 µM

Structure (SMILES): CCCCCCCc1nc(-c2ccc(CNC(=O)[C@H]3NCC[C@@H]3O)cc2)no1
GI50 [4]: > 100 µM | Activity (HEK293): Active | residual activity [5]: 112%

Structure (SMILES): CC1=C(/C=C/C(C)=C/C=C/C(C)=C/C(=O)Nc2ccc(O)cc2)C(C)(C)CCC1 [FENRETINIDE]
GI50 [9]: 2 µM | Drug metabolism [10]: metabolite_detected

Structure (SMILES): Cc1cc(CS(=O)(=O)c2ccccc2)cc(OCc2ccc(CN3CCC[C@@H]3CO)cc2)c1
GI50 [4]: 19 µM | Activity (HEK293): Active | residual activity [5]: 45%

Structure (SMILES): Cc1ccc(S(=O)(=O)Nc2ccccc2/C=N/c2ccccc2NS(=O)(=O)c2ccc(C)cc2)cc1
Ki (Sphingosine kinase 1 [14]): 27 µM | Ki (Sphingosine kinase 2 [15]): 6.9 µM

Structure (SMILES): CC1=C(/C=C/C(C)=C/C=C/C(C)=C/C(=O)N=C2C=CC(=O)C=C2)C(C)(C)CCC1
inhibition [16]: tde | Drug metabolism [17]: metabolite_detected

Structure (SMILES): OC[C@H]1C[C@H](O)CN1CCCc1ccc(Nc2nc(-c3cccc(C(F)(F)F)c3)cs2)cc1
IC50 (Sphingosine kinase 1 [18]): 0.02 µM | IC50 (Sphingosine kinase 2 [19]): 0.148 µM

Further lines, with some results ahead:

inhibition [1]: inactive
Structure (SMILES): N/C(=N\O)c1ccc(-c2nnc(-c3ccc(Cl)cc3)o2)cc1

inhibition [2]: Active
Structure (SMILES): N/C(=N\O)c1ccc(Nc2nnc(-c3ccc(Cl)cc3)o2)cc1

inhibition [6]: 40%
Structure (SMILES): O=C(NCc1ccncc1)C12CC3CC(C1)CC(c1ccc(Cl)cc1)(C3)C2

IC50 (Sphingosine kinase 1 [7]): 3.1 µM | IC50 (Sphingosine kinase 2 [8]): 5.5 µM | residual activity [5]: 39%
Structure (SMILES): Clc1ccc(-c2nnc(NCc3ccncc3)o2)cc1
GI50 [4]: > 100 µM

inhibition [11]: Active
Structure (SMILES): Oc1ccc(Nc2nnc(-c3ccc(Cl)cc3)o2)cc1

inhibition [11]: Active | residual activity [5]: 90%
Structure (SMILES): Oc1ccc(Nc2nc(-c3ccc(Cl)cc3)cs2)cc1
GI50 [4]: 11 µM | Activity (HEK293): Active | Activity (PC-3 [12]): Active | Activity (PC-3 [13]): Active

residual activity [5]: 70%
Structure (SMILES): Clc1ccc(-c2nnc(Nc3ccc(-c4nn[nH]n4)cc3)o2)cc1
GI50 [4]: 15 µM

inhibition [11]: Active
Structure (SMILES): Oc1ccc(Nc2nnc(-c3ccc(I)cc3)o2)cc1

inhibition [11]: inactive
Structure (SMILES): Oc1ccc(-c2nnc(-c3ccc(Cl)cc3)o2)cc1
